According to patent publication US20240228488A1 (TAKEDA PHARMACEUTICAL COMPANY LIMITED, priority 2021, published 2024):

Biological target: human activated kallikrein enzyme (Homo sapiens, UniProt P03952)
Experiment: Plasma kallikrein inhibition, fluorogenic PFR-AMC substrate, 500 pM activated kallikrein format
Type: biochemical
Conditions: 500 pM activated kallikrein, 300 uM PFR-AMC, 30 min preincubation, 10 min reaction; read-out: Primary Dose Response Assay: Average EC50
Procedure, shortened: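 Fluorescence (ex 380/em 460 nm) is read after 10 min of 300 uM PFR-AMC turnover by 500 pM enzyme at RT. Compounds sit with enzyme for 30 min beforehand. Buffer is Tris (pH 7.5) with EDTA, NaCl, PEG-400 and Triton X-100; EC50 values are banded.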

Sequence of human activated kallikrein enzyme (P03952 391-638 limits assumed): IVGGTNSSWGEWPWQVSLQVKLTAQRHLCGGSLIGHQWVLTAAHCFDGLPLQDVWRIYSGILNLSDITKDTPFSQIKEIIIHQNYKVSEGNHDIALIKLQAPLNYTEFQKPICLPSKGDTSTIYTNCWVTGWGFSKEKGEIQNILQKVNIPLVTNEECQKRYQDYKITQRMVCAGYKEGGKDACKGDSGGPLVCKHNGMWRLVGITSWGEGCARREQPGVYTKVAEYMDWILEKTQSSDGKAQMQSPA
Sequence of human activated kallikrein enzyme (P03952 20-390 partner limits assumed): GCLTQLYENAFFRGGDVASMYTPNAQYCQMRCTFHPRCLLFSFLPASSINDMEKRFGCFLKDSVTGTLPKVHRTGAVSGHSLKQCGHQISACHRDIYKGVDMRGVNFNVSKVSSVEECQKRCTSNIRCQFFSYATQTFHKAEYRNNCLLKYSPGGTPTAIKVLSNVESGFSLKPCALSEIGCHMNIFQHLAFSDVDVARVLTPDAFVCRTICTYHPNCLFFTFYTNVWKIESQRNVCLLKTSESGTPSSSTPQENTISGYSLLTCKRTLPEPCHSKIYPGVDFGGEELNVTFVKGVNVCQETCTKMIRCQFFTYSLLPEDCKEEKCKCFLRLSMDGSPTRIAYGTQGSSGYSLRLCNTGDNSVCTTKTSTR

Compound | EC50 [nM]
COc1ccc(C#N)c([C@H]2C[C@@H]2C(=O)Nc2cc(NCc3cn4cc(C5CC5)ccc4n3)ccn2)c1 (racemic) [Example I-206, rac-(1S*,2S*)-2-(2-cyano-5-methoxyphenyl)-N-(4-(((6-cyclopropylimidazo[1,2-a]pyridin-2-yl)methyl)amino)pyridin-2-yl)cyclopropane-1-carboxamide] | 10 to 100
Cc1ccnc([C@H]2C[C@@H]2C(=O)Nc2cc(NC(c3cn4cc(C5CC5)cc(N5CC(=O)N(C)C5=O)c4n3)C(F)(F)F)ncn2)n1 (stereo partly drawn) [Example 370, (1S,2S)-N-(6-((1-(6-cyclopropyl-8-(3-methyl-2,4-dioxoimidazolidin-1-yl)imidazo[1,2-a]pyridin-2-yl)-2,2,2-trifluoroethyl)amino)pyrimidin-4-yl)-2-(4-methylpyrimidin-2-yl)cyclopropane-1-carboxamide] | 10 to 100
O=C(Nc1cc(NCc2nc3ccc(C4CC4)cn3c2Cl)ncn1)[C@H]1C[C@@H]1c1cccc(Cl)c1 (racemic) [Example 69, rac-(1S*,2S*)-N-(6-(((3-chloro-6-cyclopropylimidazo[1,2-α]pyridin-2-yl)methyl)amino)pyrimidin-4-yl)-2-(3-chlorophenyl)cyclopropane-1-carboxamide] | 1000 to 6000
Cc1ccnc([C@H]2C[C@@H]2C(=O)Nc2cc(N[C@@H](C)c3cn4cc(C(F)F)cc(N5CC(=O)N(C)C5=O)c4n3)nc(C)n2)n1 [Example 427, (1S,2S)-N-(6-(((S)-1-(6-(difluoromethyl)-8-(3-methyl-2,4-dioxoimidazolidin-1-yl)imidazo[1,2-a]pyridin-2-yl)ethyl)amino)-2-methylpyrimidin-4-yl)-2-(4-methylpyrimidin-2-yl)cyclopropane-1-carboxamide] | 10 to 100
Cc1ccnc([C@H]2C[C@@H]2C(=O)Nc2cc(N[C@H](C)c3cn4cc(C5CC5)cc(N5CC(=O)N(C)C5=O)c4n3)nc(CO)n2)n1 [Example 469, (1S,2S)-N-(6-(((R)-1-(6-cyclopropyl-8-(3-methyl-2,4-dioxoimidazolidin-1-yl)imidazo[1,2-a]pyridin-2-yl)ethyl)amino)-2-(hydroxymethyl)pyrimidin-4-yl)-2-(4-methylpyrimidin-2-yl)cyclopropane-1-carboxamide] | < 1
CC(C)(C)OC(=O)Nc1cc(C2CC2)cn2cc(CNc3cc(NC(=O)[C@H]4C[C@@H]4c4cccc(Cl)c4)ncn3)nc12 [Example I-156, tert-butyl (2-(((6-((15,2S)-2-(3-chlorophenyl)cyclopropane-1-carboxamido)pyrimidin-4-yl)amino)methyl)-6-cyclopropylimidazo[1,2-a]pyridin-8-yl)carbamate] | 100 to 1000
O=C(Nc1cc(NCc2cn3cc(C4CC4)ccc3n2)ncn1)[C@@H]1C[C@@]12C(=O)Nc1ccc(Cl)cc12 (racemic) [Example 510, rac-(1R*,2R*)-5′-chloro-N-(6-(((6-cyclopropylimidazo[1,2-a]pyridin-2-yl)methyl)amino)pyrimidin-4-yl)-2′-oxospiro[cyclopropane-1,3′-indoline]-2-carboxamide] | 100 to 1000
O=C(Nc1cc(N2C[C@@H](O)[C@@H](O)[C@@H]2c2cn3cc(C4CC4)ccc3n2)ncn1)[C@H]1C[C@@H]1c1cccc(Cl)c1 [Example 483, (1S,2S)-2-(3-chlorophenyl)-N-(6-((2S,3S,4R)-2-(6-cyclopropylimidazo[1,2-a]pyridin-2-yl)-3,4-dihydroxypyrrolidin-1-yl)pyrimidin-4-yl)cyclopropane-1-carboxamide] | 100 to 1000
O=C(Nc1cc(NCc2cn3cc(C4CC4)cc(N4C[C@H](O)CC4=O)c3n2)ncn1)[C@H]1C[C@@H]1c1cccc(Cl)c1 (relative stereo) [Example 65, rac-(1S*,2S*)-2-(3-chlorophenyl)-N-(6-(((6-cyclopropyl-8-((R)-4-hydroxy-2-oxopyrrolidin-1-yl)imidazo[1,2-a]pyridin-2-yl)methyl)amino)pyrimidin-4-yl)cyclopropane-1-carboxamide] | 1 to 10
N#Cc1cc(C2CC2)cn2cc(CNc3ccnc(NC(=O)[C@@H]4C[C@H]4c4cccc(Cl)c4)c3)nc12 (racemic) [Example 119, rac-(1S*,2S*)-2-(3-chlorophenyl)-N-(4-(((8-cyano-6-cyclopropylimidazo[1,2-a]pyridin-2-yl)methyl)amino)pyridin-2-yl)cyclopropane-1-carboxamide] | 1 to 10
CN(C)C1CCN(c2cc(C3CC3)cn3cc(CNc4cc(NC(=O)[C@H]5C[C@@H]5c5cccc(Cl)c5)ncn4)nc23)C1 (single isomer, unassigned) [Example I-14] | 1 to 10
COc1cc([C@H]2C[C@@H]2C(=O)Nc2cc(NCc3cn4cc(C5CC5)ccc4n3)ncn2)cc(Cl)n1 (racemic) [Example I-187, rac-(1S*,2S*)-2-(2-chloro-6-methoxypyridin-4-yl)-N-(6-(((6-cyclopropylimidazo[1,2-a]pyridin-2-yl)methyl)amino)pyrimidin-4-yl)cyclopropane-1-carboxamide] | > 6000
COc1cc([C@H]2C[C@@H]2C(=O)Nc2cc(NCc3cn4cc(C5CC5)ccc4n3)ncn2)cc(N)n1 (racemic) [Example 277, rac-(1S*,2S*)-2-(2-amino-6-methoxypyridin-4-yl)-N-(6-(((6-cyclopropylimidazo[1,2-a]pyridin-2-yl)methyl)amino)pyrimidin-4-yl)cyclopropane-1-carboxamide] | 100 to 1000
O=C(Nc1cc(NCc2nc3ccc(C4CC4)cn3c2F)ncn1)[C@H]1C[C@@H]1c1cccc(Cl)c1 [Example I-152, (1S,2S)-2-(3-chlorophenyl)-N-(6-(((6-cyclopropyl-3-fluoroimidazo[1,2-a]pyridin-2-yl)methyl)amino)pyrimidin-4-yl)cyclopropane-1-carboxamide] | 10 to 100
O=C(Nc1nccc2nn(Cc3cn4cc(C5CC5)ccc4n3)nc12)[C@H]1C[C@@H]1c1cccc(Cl)c1 [Example 583, (1S,2S)-2-(3-chlorophenyl)-N-(2-((6-cyclopropylimidazo[1,2-a]pyridin-2-yl)methyl)-2H-[1,2,3]triazolo[4,5-c]pyridin-4-yl)cyclopropane-1-carboxamide] | 1 to 10
COc1ccnc([C@H]2C[C@@H]2C(=O)Nc2cc(NCc3cn4cc(C5CC5)ccc4n3)ccn2)c1 (racemic) [Example I-214, rac-(1S*,2S*)-N-(4-(((6-cyclopropylimidazo[1,2-a]pyridin-2-yl)methyl)amino)pyridin-2-yl)-2-(4-methoxypyridin-2-yl)cyclopropane-1-carboxamide] | 1 to 10
CCOC(=O)c1cnc(NC(=O)[C@H]2C[C@@H]2c2nccc(C)n2)nc1OCc1cn2cc(C3CC3)cc(N3CC(=O)N(C)C3=O)c2n1 [Example I-654, ethyl 4-((6-cyclopropyl-8-(3-methyl-2,4-dioxoimidazolidin-1-yl)imidazo[1,2-a]pyridin-2-yl)methoxy)-2-((1S,2S)-2-(4-methylpyrimidin-2-yl)cyclopropane-1-carboxamido)pyrimidine-5-carboxylate] | < 1
Cc1ccnc(C2CC2C(=O)Nc2cc(OCc3cn4cc(C5CC5)cc(N5CC(=O)N(C)C5=O)c4n3)c(C(F)(F)F)nn2)n1 (stereo not drawn) [Example 666, N-(5-((6-cyclopropyl-8-(3-methyl-2,4-dioxoimidazolidin-1-yl)imidazo[1,2-a]pyridin-2-yl)methoxy)-6-(trifluoromethyl)pyridazin-3-yl)-2-(4-methylpyrimidin-2-yl)cyclopropane-1-carboxamide] | < 1
Cc1ccnc([C@H]2C[C@@H]2C(=O)Nc2cc(N3CC(C)(O)C[C@@H]3c3cn4cc(C5CC5)ccc4n3)ncn2)n1 (stereo partly drawn) [Example 426, (1S,2S)-N-(6-((2R)-2-(6-cyclopropylimidazo[1,2-a]pyridin-2-yl)-4-hydroxy-4-methylpyrrolidin-1-yl)pyrimidin-4-yl)-2-(4-methylpyrimidin-2-yl)cyclopropane-1-carboxamide] | 10 to 100
CC(NC(=O)[C@H]1C[C@@H]1c1cccc(Cl)c1)c1cn(Cc2cn3cc(C4CC4)ccc3n2)nn1 (single isomer, unassigned) [Example 590, rac-(1S*,2S*)-2-(3-chlorophenyl)-N-(1-(1-((6-cyclopropylimidazo[1,2-a]pyridin-2-yl)methyl)-1H-1,2,3-triazol-4-yl)ethyl)cyclopropane-1-carboxamide] | 10 to 100
Nc1cc(Cl)cc([C@H]2C[C@@H]2C(=O)Nc2cc(NCc3cn4cc(C5CC5)ccc4n3)ncn2)c1 (single isomer, unassigned) [Example I-257, rac-(1S*,2S*)-2-(3-amino-5-chlorophenyl)-N-(6-(((6-cyclopropylimidazo[1,2-a]pyridin-2-yl)methyl)amino)pyrimidin-4-yl)cyclopropane-1-carboxamide] | 1 to 10
O=C(NCc1cn(Cc2cn3cc(C4CC4)cc(-n4cnnc4)c3n2)nn1)[C@H]1C[C@@H]1c1cccc(Cl)c1 [Example 591, (1S,2S)-2-(3-chlorophenyl)-N-((1-((6-cyclopropyl-8-(4H-1,2,4-triazol-4-yl)imidazo[1,2-a]pyridin-2-yl)methyl)-1H-1,2,3-triazol-4-yl)methyl)cyclopropane-1-carboxamide] | 1 to 10
Cc1ccnc([C@H]2C[C@@H]2C(=O)Nc2ncnc3nn(Cc4cn5cc(C6CC6)cc(N6CC(=O)N(C)C6=O)c5n4)cc23)n1 (single isomer, unassigned) [Example I-634, rac-(1S*,2S*)—N-(2-((6-cyclopropyl-8-(3-methyl-2,4-dioxoimidazolidin-1-yl)imidazo[1,2-a]pyridin-2-yl)methyl)-2H-pyrazolo[3,4-d]pyrimidin-4-yl)-2-(4-methylpyrimidin-2-yl)cyclopropane-1-carboxamide] | < 1
Cc1ccnc([C@H]2C[C@@H]2C(=O)Nc2nccc3nc(Cc4cn5cc(C6CC6)cc(N6CC(=O)N(C)C6=O)c5n4)oc23)n1 [Example 629, (1S,2S)—N-(2-((6-cyclopropyl-8-(3-methyl-2,4-dioxoimidazolidin-1-yl)imidazo[1,2-a]pyridin-2-yl)methyl)oxazolo[5,4-c]pyridin-4-yl)-2-(4-methylpyrimidin-2-yl)cyclopropane-1-carboxamide] | < 1
